From patent US7973012B2, “C-phenyl glycitol compound” (Taisho Pharmaceutical Co., Ltd, priority 2006, dated 2011)

How the values were obtained:
[1] = system: Streptozotocin diabetic model rats; assay: Oral glucose tolerance test in streptozotocin diabetic model rats; assay type: in vivo; details: Rattus norvegicus; STZ diabetic SD/IGS rats; 1 mg/kg oral, glucose 2 g/kg oral 5 minutes later; decrease rate of ΔAUC 0-1 h vs control group; read-out: STZ rats-OGTT(2 g/kg) % inhibition ΔAUC0-1 h(mgh/dL) @1 mg/kg
Protocol: 7-week-old SD/IGS rats (from CHARLES RIVER LABORATORIES JAPAN, INC., male) were fasted for about 16 hours. Then to these rats under etherization were administered 50 mg/kg of streptozotocin (STZ) via the tail vein to prepare diabetic model rats. Similarly, to rats under etherization were administered 1 mL/kg physiological saline containing 1.25 mmol/L of citric acid via tail veins to prepare normal control rats. One week (8 weeks old) after administration of STZ or 1.25 mmol/L citric acid physiological saline, the rats were subjected to oral glucose tolerance test.
After the rats were fasted for about 16 hours, the medicament (1 mg/kg) suspended in a 0.5% carboxymethyl cellulose (CMC) aqueous solution was orally administered to a medicament treated group, and only a 0.5% aqueous solution of CMC was orally administered to a control group. At 5 minutes after the administration, a glucose solution (2 g/kg) was orally administered to each rat, and blood was collected at 5 points in total: before the administration (0 time), after 0.25, 0.5, 1 and 2 hours after the oral administration.
The blood was collected from the orbital sinus venosus of each rat under etherization with a heparin-coated blood collection tube and centrifuged, and then blood plasma was separated. The concentration of glucose in the blood plasma was determined with Glucose CII Test Wako from Wako Pure Chemical Industries, Ltd. As for the intensity of inhibitory effect on elevation of blood glucose level, area under the blood glucose level curve (AUC) was calculated by the trapezoidal rule based on the blood glucose levels of the medicament treated group from 0 time to 1 hour time. And a basal value is subtracted from AUC to describe the intensity as area under the blood glucose level increment (ΔAUC) and describe the intensity as a decrease rate from the ΔAUC of the control group.

human SGLT2 = biological target: T1, human SGLT2 (Homo sapiens, UniProt P31639); assay: Inhibition test of sodium-dependent sugar uptake in CHO-k1 cells stably expressing human SGLT2; assay type: cell-based; details: CHO-k1 cells expressing human SGLT2; [14C]methyl α-D-glucopyranoside uptake, 37° C., an hour
T1 construct: expressed in transfected cells; host or cells: CHO-k1
T1 sequence (P31639 1-672): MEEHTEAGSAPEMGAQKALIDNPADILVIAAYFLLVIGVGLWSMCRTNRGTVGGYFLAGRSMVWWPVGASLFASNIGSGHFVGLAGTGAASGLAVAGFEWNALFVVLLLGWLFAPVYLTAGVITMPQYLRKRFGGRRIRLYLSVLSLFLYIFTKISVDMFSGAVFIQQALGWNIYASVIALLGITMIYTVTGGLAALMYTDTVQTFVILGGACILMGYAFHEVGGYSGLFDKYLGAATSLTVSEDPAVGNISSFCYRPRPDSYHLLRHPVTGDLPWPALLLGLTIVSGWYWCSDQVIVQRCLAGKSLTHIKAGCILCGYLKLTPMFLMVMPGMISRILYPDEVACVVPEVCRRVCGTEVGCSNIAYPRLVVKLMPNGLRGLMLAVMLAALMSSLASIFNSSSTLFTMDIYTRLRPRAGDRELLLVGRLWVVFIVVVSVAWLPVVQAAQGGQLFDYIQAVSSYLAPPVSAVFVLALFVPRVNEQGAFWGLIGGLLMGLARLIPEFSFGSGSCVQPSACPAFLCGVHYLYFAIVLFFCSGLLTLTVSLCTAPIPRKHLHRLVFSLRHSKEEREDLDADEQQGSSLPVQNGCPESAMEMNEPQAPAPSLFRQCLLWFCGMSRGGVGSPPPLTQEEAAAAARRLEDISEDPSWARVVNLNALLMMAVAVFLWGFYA
Protocol: (§1) An SGLT1 sequence (NM_000343) was reverse-transcripted from human small intestinal mRNA, then amplified, and then introduced into pCMV-tag5A from Stratagene Corporation. An SGLT2 sequence (NM_003041) was prepared from human nephric mRNA as with the above method, and then introduced into pcDNA3.1+hygro from Invitrogen Corporation. Each cloned sequence was confirmed to be identical with the reported sequence.
(§2) The human SGLT1 and human SGLT2 expression vectors were transfected into CHO-k1 cells by using Lipofectamine 2000 from Invitrogen Corporation. The SGLT expression cells were incubated in the presence of Geneticin (SGLT1) or Hygromycin B (SGLT2) at a 500 μg/mL concentration to select resistant strains, and specific activity of sugar uptake was obtained as an indicator by the following system.
(§3) Cells stably expressing human SGLT1 and human SGLT2 were used for the inhibition test of sodium-dependent glucose uptake.
(§4) The cells were incubated in a pretreatment buffer A (200 μL for SGLT1, and 2 mL for SGLT2) for 20 minutes. The pretreatment buffer was removed and an uptake buffer B (75 μL for SGLT1, and 200 μL for SGLT2) containing a test compound was added to conduct an uptake reaction at 37° C. for 30 minutes (SGLT1) or an hour (SGLT2). After the reaction, the cells were washed with a washing buffer C twice (200 μL for SGLT1, and 2 mL for SGLT2), and then dissolved in a 0.2 M solution of NaOH (75 μL for SGLT1, and 400 μL for SGLT2). After a liquid scintilater was added thereto and mixed sufficiently, radioactivity was measured with microBETA (SGLT1) or a liquid scintillation counter from Beckman Coulter, Inc (SGLT2). As a control group, an uptake buffer containing no test compound was prepared. In addition, as the basic uptake buffer, an uptake buffer B containing choline chloride instead of NaCl was prepared. • A pretreatment buffer A: 140 mM choline chloride, 2 mM KCl, 1 mM CaCl2, 1 mM MgCl2, 10 mM HEPES/5 mM Tris, pH 7.4. • An uptake buffer B: 1 mM of methyl α-D-glucopyranoside containing [^14C]methyl α-D-glucopyranoside, 140 mM NaCl, 2 mM KCl, 1 mM CaCl2, 1 mM MgCl2, 10 mM HEPES/5 mM Tris, pH 7.4. • A washing buffer C: 10 mM methyl α-D-glucopyranoside, 140 mM choline chloride, 2 mM KCl, 1 mM CaCl2, 1 mM MgCl2, 10 mM HEPES/5 mM Tris, pH 7.4.
(§5) In order to obtain IC50 values, test compounds having adequate 6 concentrations were used and the test compound concentrations (IC50 values) at which sugar uptake is inhibited by 50% in comparison with the amount of sugar uptake (100%) of the control group were calculated.
(§6) In addition, the sugar uptake inhibition rates at 100 nM concentration of the test compound in comparison with the control group are shown in Table 7.

human SGLT1 = biological target: T2, human SGLT1 (Homo sapiens, UniProt P13866); assay: Inhibition test of sodium-dependent sugar uptake in CHO-k1 cells stably expressing human SGLT1; assay type: cell-based; details: CHO-k1 cells expressing human SGLT1; [14C]methyl α-D-glucopyranoside uptake, 37° C., 30 minutes
T2 construct: expressed in transfected cells; host or cells: CHO-k1
T2 sequence (P13866 1-664): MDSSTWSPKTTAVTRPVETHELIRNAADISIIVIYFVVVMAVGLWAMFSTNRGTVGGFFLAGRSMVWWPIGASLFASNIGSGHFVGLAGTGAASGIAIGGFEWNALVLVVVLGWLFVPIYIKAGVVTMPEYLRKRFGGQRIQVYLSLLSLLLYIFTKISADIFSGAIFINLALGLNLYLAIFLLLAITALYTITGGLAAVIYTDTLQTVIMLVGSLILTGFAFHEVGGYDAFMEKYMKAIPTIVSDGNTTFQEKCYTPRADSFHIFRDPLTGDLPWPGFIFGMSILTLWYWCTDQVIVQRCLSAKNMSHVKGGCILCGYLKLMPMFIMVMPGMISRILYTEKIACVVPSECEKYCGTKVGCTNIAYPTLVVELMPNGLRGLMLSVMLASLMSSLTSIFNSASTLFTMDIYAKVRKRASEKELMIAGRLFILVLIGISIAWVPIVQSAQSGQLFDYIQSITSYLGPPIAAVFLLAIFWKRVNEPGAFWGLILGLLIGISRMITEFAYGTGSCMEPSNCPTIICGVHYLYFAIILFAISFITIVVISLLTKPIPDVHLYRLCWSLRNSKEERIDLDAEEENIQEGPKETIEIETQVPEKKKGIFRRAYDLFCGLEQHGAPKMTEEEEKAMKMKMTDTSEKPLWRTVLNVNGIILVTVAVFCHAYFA
Protocol: as §1, §2, §3, §4, §5, §6

SMILES | inhibition in vivo at 1 mg/kg [1] [%] | IC50 (human SGLT2) [nM] | IC50 (human SGLT1) [nM]
Cc1cc(O)c([C@@H]2O[C@H](CO)[C@@H](O)[C@H](O)[C@H]2O)cc1Cc1ccc(CCCC(=O)NC(CO)(CO)CO)cc1 [Compound 3, (1S)-1,5-anhydro-1-[2-hydroxy-5-[4-[4-[[2-hydroxy-1,1-bis(hydroxymethyl)ethyl]amino]-4-oxobutyl]benzyl]-4-methylphenyl]-D-glucitol] | 63.9 | 65 | 35
Cc1cc(O)c([C@@H]2O[C@H](CO)[C@@H](O)[C@H](O)[C@H]2O)cc1Cc1ccc(CCNC(=O)NC(CO)(CO)CO)cc1 [Compound 11, (1S)-1,5-anhydro-1-[5-[4-[2-[[[2-hydroxy-1,1-bis(hydroxymethyl)ethyl]aminocarbonyl]amino]ethyl]benzyl]-2-hydroxy-4-methylphenyl]-D-glucitol] | 69.3 | 34 | 59
Cc1cc(O)c([C@@H]2O[C@H](CO)[C@@H](O)[C@H](O)[C@H]2O)cc1Cc1ccc(CCCNC(=O)NC(CO)(CO)CO)cc1 [Compound 9, (1S)-1,5-anhydro-1-[5-[4-[3-[[[2-hydroxy-1,1-bis(hydroxymethyl)ethyl]aminocarbonyl]amino]propyl]benzyl]-2-hydroxy-4-methylphenyl]-D-glucitol] | 50.1 | 29 | 175
Cc1cc(O)c([C@@H]2O[C@H](CO)[C@@H](O)[C@H](O)[C@H]2O)cc1Cc1ccc(CCCC(=O)NC(C)(C)C(N)=O)cc1 [Compound 4, (1S)-1-[5-[4-[4-[(2-amino-1,1-dimethyl-2-oxoethyl)amino]-4-oxobutyl]benzyl]-2-hydroxy-4-methylphenyl]-1,5-anhydro-D-glucitol] | 51 | 31 | 51
Cc1cc(O)c([C@@H]2O[C@H](CO)[C@@H](O)[C@H](O)[C@H]2O)cc1Cc1ccc(CCCNC(=O)NC(C)(C)CO)cc1 [Compound 8, (1S)-1,5-anhydro-1-[5-[4-[3-[[(2-hydroxy-1,1-dimethylethyl)aminocarbonyl]amino]propyl]benzyl]-2-hydroxy-4-methylphenyl]-D-glucitol] | 45.1 | 29 | 65
Cc1cc(O)c([C@@H]2O[C@H](CO)[C@@H](O)[C@H](O)[C@H]2O)cc1Cc1ccc(CCNC(=O)NC(C)(C)CO)cc1 [Compound 10, (1S)-1,5-anhydro-1-[5-[4-[2-[[(2-hydroxy-1,1-dimethylethyl)aminocarbonyl]amino]ethyl]benzyl]-2-hydroxy-4-methylphenyl]-D-glucitol] | 67.8 | 23 | 51
Cc1cc(O)c([C@@H]2O[C@H](CO)[C@@H](O)[C@H](O)[C@H]2O)cc1Cc1ccc(CCCC(=O)NC(C)(C)CO)cc1 [Compound 1, (1S)-1,5-anhydro-1-[2-hydroxy-5-[4-[4-[(2-hydroxy-1,1-dimethylethyl)amino]-4-oxobutyl]benzyl]-4-methylphenyl]-D-glucitol] | 41.7 | 17 | 11
Cc1cc(O)c([C@@H]2O[C@H](CO)[C@@H](O)[C@H](O)[C@H]2O)cc1Cc1ccc(CCNC(=O)NC(C)(C)C(=O)N2CCN(C)CC2)cc1 [Compound 12, (1S)-1,5-anhydro-1-[5-[4-[2-[[[1-[1-(4-methylpiperazin-1-yl)carbonyl]-1-(methyl)ethyl]aminocarbonyl]amino]ethyl]benzyl]-2-hydroxy-4-methylphenyl]-D-glucitol] | 48.8 | 48 | 113
Cc1cc(O)c([C@@H]2O[C@H](CO)[C@@H](O)[C@H](O)[C@H]2O)cc1Cc1ccc(CCCC(=O)NC(C)(CO)CO)cc1 [Compound 2, (1S)-1,5-anhydro-1-[2-hydroxy-5-[4-[4-[[2-hydroxy-1-(hydroxymethyl)-1-methylethyl]amino]-4-oxobutyl]benzyl]-4-methylphenyl]-D-glucitol] | 51.6 | 18 | 32
